Experimental data reported in the NIST ThermoML archive (doi:10.1016/j.fluid.2013.06.013).

Experiments:
[1] = 298.15 K; 101.33 kPa; Liquid; Vibrating tube method
[2] = refractive index (Na D-line) (dimensionless); conditions: 298.15 K; 101.33 kPa; Liquid; Standard Abbe refractometry
[3] = refractive index (Na D-line) (dimensionless); xn = mol fraction of the nth substance listed; conditions: 298.15 K, 101 kPa, Liquid, Standard Abbe refractometry
[4] = xn = mol fraction of the nth substance listed; conditions: 298.15 K, 101 kPa, Liquid, Vibrating tube method

CCCCCCCC[n+]1ccn(C)c1.F[B-](F)(F)F [1-methyl-3-octylimidazolium tetrafluoroborate]
Conditions	mass density [kg/m3]	refractive index
[1]	1101.99	–
[2]	–	1.43306

CCCC[n+]1ccn(C)c1.O=S(=O)([N-]S(=O)(=O)C(F)(F)F)C(F)(F)F
Conditions	mass density [kg/m3]	refractive index
[1]	1436.16	–
[2]	–	1.42689

CC(CC(C)(C)C)CP(=O)([O-])CC(C)CC(C)(C)C.CCCCCCCCCCCCCC[P+](CCCCCC)(CCCCCC)CCCCCC
Conditions	mass density [kg/m3]	refractive index
[1]	886.43	–
[2]	–	1.47125

CCCCn1cc[n+](C)c1.F[P-](F)(F)(F)(F)F [1-butyl-3-methylimidazolium hexafluorophosphate]
Conditions	mass density [kg/m3]	refractive index
[1]	1366.95	–
[2]	–	1.40926

O [water]
Conditions	refractive index
[2]	1.33249

CCCCCCn1cc[n+](C)c1.F[B-](F)(F)F [1-hexyl-3-methylimidazolium tetrafluoroborate]
Conditions	mass density [kg/m3]	refractive index
[1]	1144.46	–
[2]	–	1.42844

CCCCCCCCCCCCCC[P+](CCCCCC)(CCCCCC)CCCCCC.N#C[N-]C#N [tetradecyl(trihexyl)phosphonium dicyanamide]
Conditions	mass density [kg/m3]	refractive index
[1]	899.14	–
[2]	–	1.48154

CCCCCCCCCCCCCC[P+](CCCCCC)(CCCCCC)CCCCCC.N#C[N-]C#N [tetradecyl(trihexyl)phosphonium dicyanamide] + CC(=O)CC(C)=O
Conditions	mass density, [4] [kg/m3]	refractive index, [3]
x2 = 0.0599	899.94	1.481
x2 = 0.113	900.73	1.4808
x2 = 0.2	902.2	1.4801
x2 = 0.3143	904.54	1.4795
x2 = 0.4094	906.97	1.4785
x2 = 0.5016	909.92	1.4773
x2 = 0.5967	913.83	1.4757
x2 = 0.7002	919.76	1.4732
x2 = 0.8004	928.35	1.47
x2 = 0.9	942.61	1.463
x2 = 0.9496	953.89	1.4578

CCCCCCCCCCCCCC[P+](CCCCCC)(CCCCCC)CCCCCC.[Cl-] [trihexyl(tetradecyl)phosphonium chloride] + CC(=O)CC(C)=O
Conditions	mass density, [4] [kg/m3]	refractive index, [3]
x2 = 0.0586	892.92	1.4811
x2 = 0.0977	893.66	1.481
x2 = 0.1957	895.67	1.481
x2 = 0.2949	898.11	1.4805
x2 = 0.3989	901.25	1.4799
x2 = 0.4985	905.14	1.478
x2 = 0.6092	910.91	1.4759
x2 = 0.7096	918.02	1.4741
x2 = 0.8008	926.85	1.4705
x2 = 0.9036	942.76	1.4633
x2 = 0.9508	953.8	1.458

CCn1cc[n+](C)c1.O=S(=O)([N-]S(=O)(=O)C(F)(F)F)C(F)(F)F
Conditions	mass density [kg/m3]	refractive index
[1]	1518.86	–
[2]	–	1.42293

CCCCCCCCCCCCCC[P+](CCCCCC)(CCCCCC)CCCCCC.[Cl-] [trihexyl(tetradecyl)phosphonium chloride]
Conditions	mass density [kg/m3]	refractive index
[1]	891.82	–
[2]	–	1.48175

CC(=O)CC(C)=O [2,4-pentanedione] + CC(CC(C)(C)C)CP(=O)([O-])CC(C)CC(C)(C)C.CCCCCCCCCCCCCC[P+](CCCCCC)(CCCCCC)CCCCCC
Conditions	mass density, [4] [kg/m3]	refractive index, [3]
x1 = 0.0517	888.32	1.4714
x1 = 0.0958	889.43	1.4721
x1 = 0.2082	892.48	1.4731
x1 = 0.2986	895.05	1.4742
x1 = 0.3991	898	1.4751
x1 = 0.499	901.47	1.475
x1 = 0.6013	905.75	1.4753
x1 = 0.7004	911.47	1.474
x1 = 0.7998	919.31	1.4716
x1 = 0.9	933.94	1.4659
x1 = 0.95	946.89	1.4602

CCCCCCCCN(CCCCCCCC)CCCCCCCC [trioctylamine]
Conditions	mass density [kg/m3]	refractive index
[1]	807.46	–
[2]	–	1.44758

CC(=O)CC(C)=O [2,4-pentanedione]
Conditions	mass density [kg/m3]	refractive index
[1]	971.07	–
[2]	–	1.4509
